Measured values reported in ChEMBL document CHEMBL1201862, “PubChem BioAssay data set” (2004).
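How tested: cells in 96-well plates exposed to compound for 48 hours at five concentrations. At the GI50, growth is halved.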 The source made the active and inactive calls. No stated cut-off is given here; in the data, active = GI50 up to about 1.1 µM and inactive = higher.

What was measured:
Experiment in all cases: inhibition of tumour cell growth, NCI panel, 48 h
[1] = tested on: Hs-578T
[2] = tested on: PC-3
[3] = tested on: NCI-H460
[4] = tested on: KM12
[5] = tested on: TK-10
[6] = tested on: SK-MEL-28
[7] = tested on: LOX IMVI
[8] = tested on: NCI-H23
[9] = tested on: MDA-MB-435
[10] = tested on: MDA-MB-231
[11] = tested on: HOP-92
[12] = tested on: OVCAR-5
[13] = tested on: NCI-H522
[14] = tested on: MCF7
[15] = tested on: CAKI-1
[16] = tested on: UACC-62
[17] = tested on: UO-31
[18] = tested on: HCT-15
[19] = tested on: DU-145
[20] = tested on: M14
[21] = tested on: A549
[22] = tested on: HCT-116
[23] = tested on: NCI/ADR-RES
[24] = tested on: RPMI-8226
[25] = tested on: MDA-N
[26] = tested on: SK-MEL-2
[27] = tested on: EKVX
[28] = tested on: UACC-257
[29] = tested on: CCRF-CEM
[30] = tested on: SW-620
[31] = tested on: COLO 205
[32] = tested on: HT-29
[33] = tested on: OVCAR-8
[34] = tested on: SR
[35] = tested on: SNB-75
[36] = tested on: HOP-62
[37] = tested on: IGROV-1
[38] = tested on: SNB-19
[39] = tested on: 786-0
[40] = tested on: K562
[41] = tested on: OVCAR-3
[42] = tested on: OVCAR-4
[43] = tested on: SF-268
[44] = tested on: ACHN
[45] = tested on: SF-295
[46] = tested on: MOLT-4
[47] = tested on: RXF 393
[48] = tested on: SF-539
[49] = tested on: SK-OV-3
[50] = tested on: U-251
[51] = tested on: BT-549
[52] = tested on: SN12C
[53] = tested on: HCC 2998
[54] = tested on: SK-MEL-5
[55] = tested on: NCI-H226
[56] = tested on: T47D
[57] = tested on: HL-60
[58] = tested on: A498
[59] = tested on: Malme-3M

Measured: GI50

Cn1c(=O)n2n(c1=O)C([S+]([O-])c1ccccc1)C2 (stereo not drawn)
> 100 µM: [18]
inactive: [1] > 100 µM | [2] 33.4 µM | [3] > 100 µM | [4] 42.8 µM | [5] > 100 µM | [6] > 100 µM | [7] 38.9 µM | [8] > 100 µM | [9] > 100 µM | [10] > 100 µM | [11] > 100 µM | [12] > 100 µM | [13] 30.8 µM | [14] > 100 µM | [15] > 100 µM | [16] > 100 µM | [17] > 100 µM | [19] > 100 µM | [20] > 100 µM | [21] 65.2 µM | [22] > 100 µM | [23] > 100 µM | [24] > 100 µM | [25] > 100 µM | [26] > 100 µM | [27] > 100 µM | [28] > 100 µM | [29] 20.2 µM | [30] > 100 µM | [31] > 100 µM | [32] > 100 µM | [33] > 100 µM | [34] 38.3 µM | [35] > 100 µM | [36] > 100 µM | [37] 32.1 µM | [38] > 100 µM | [39] > 100 µM | [40] > 100 µM | [41] > 100 µM | [42] > 100 µM | [43] > 100 µM | [44] > 100 µM | [45] > 100 µM | [46] 18.5 µM | [47] > 100 µM | [48] > 100 µM | [49] > 100 µM | [50] > 100 µM | [51] > 100 µM | [52] > 100 µM | [53] > 100 µM | [54] > 100 µM

COC(=O)C1C(=O)CC(C)(O)C(C(=O)OC)C1c1ccc(N(C)C)cc1 (stereo not drawn)
> 100 µM: [18]
inactive: [2] > 100 µM | [3] > 100 µM | [4] > 100 µM | [5] > 100 µM | [6] > 100 µM | [7] 11.6 µM | [8] > 100 µM | [9] > 100 µM | [10] > 100 µM | [55] > 100 µM | [11] > 100 µM | [12] > 100 µM | [13] > 100 µM | [14] > 100 µM | [15] > 100 µM | [16] > 100 µM | [56] > 100 µM | [57] > 100 µM | [17] > 100 µM | [19] > 100 µM | [21] > 100 µM | [58] > 100 µM | [22] 8.67 µM | [23] > 100 µM | [25] > 100 µM | [26] > 100 µM | [27] > 100 µM | [28] > 100 µM | [29] > 100 µM | [30] > 100 µM | [31] > 100 µM | [32] > 100 µM | [33] > 100 µM | [34] > 100 µM | [35] > 100 µM | [36] > 100 µM | [37] > 100 µM | [38] > 100 µM | [39] 12 µM | [40] > 100 µM | [41] > 100 µM | [42] > 100 µM | [43] > 100 µM | [44] > 100 µM | [45] > 100 µM | [46] > 100 µM | [59] > 100 µM | [47] > 100 µM | [50] > 100 µM | [51] > 100 µM | [52] > 100 µM | [53] > 100 µM | [54] > 100 µM
